In one assay the test system is lymphocytes. Nature of the assay: Cell differentiation induction: lymphocyte surface antigen of lymph node. In kind it is in vivo, MRL-lpr/lpr mice. The settings on record: 10 mg/kg i.m., eight weeks; vs control, 2.5 and 5 mg/kg. The protocol:
The PBS solution of the purified keratan sulfate disaccharide (III) which was prepared in Example 1 described above at a dose of 2.5 mg/kg, 5 mg/kg, or 10 mg/kg weight (hereinafter referred to as the 2.5 mg/kg administered group, the 5 mg/kg administered group, and the 10 mg/kg administered group, respectively), and PBS as the control (hereinafter sometimes referred to as the control group) was intramuscularly injected, respectively, to the femoral region of MRL-lpr/lpr mice seven times a week for eight weeks. After that, the mice were subjected to anatomization, and the lymph nodes were minced on a cell strainer (Falcon 2350) to prepare the lymphocyte. The lymphocyte prepared of each group was subjected to the double immune staining with the anti-CD3 antibody (Seikagaku Corporation) and the anti-CD4 antibody (Pharminjen), that with the anti-CD3 antibody and the anti-CD8a antibody (Pharminjen), and that with the anti-CD3 antibody and the anti-B220 antibody (Pharminjen), respectively. The CD3, CD4, and CDBa are cell surface antigens which are expressed on T cells, and the B220 is that expressed on B cells. And it is known that no expression of these cell surface antigens is observed on null lymphocytes.
The proportion (%) of the CD3 and CD4 positive cells (hereinafter sometimes referred to as "the CD3+CD4+cells"; mainly helper T cells) to all the lymphocytes and the standard errors are shown in FIG. 19, that of the CD3 and CD8a positive cells (hereinafter sometimes referred to as "the CD3+CD8a+cells"; mainly suppressor T cells and cytotoxic T cells) and the standard errors are shown in FIG. 20, and that of the CD3 and B220 positive cells (hereinafter sometimes referred to as "the CD3+B220+cells";abnormal T cells having the surface antigens of B cells) and the standard errors are shown in FIG. 21. In the figures, * represents that it has the significant difference with p<0.05 (wherein "p" means a level of significance by the Ryan multiple comparative test). In each group, seven mice were used.

The test system of the next assay is carrageenin pleurisy. The assay is described as follows: Carrageenin pleurisy model. In kind it is in vivo, Female S.D. rats. Conditions: six hours. The procedure: The effect of the keratan sulfate oligosaccharide was examined with the carrageenin pleurisy model of rats which is generally used for evaluation of anti-inflammatory agents.
Female S.D. rats (n=37) of about 150 to 170 g weight were used for the test. The λ-carrageenin (Sigma) was dissolved in saline to a concentration of 2%, and the solution was filtered with a 0.8 μm filter. The carrageenin solution obtained was intrathoracically administered at 100 μl/animal to prepare the pleurisy model.
To the pleurisy model of rats (n=19) described above, the keratan sulfate tetrasaccharide (I) dissolved in PBS was subcutaneously (s.c.) administered in 20 mg/kg or 10 mg/kg dose. And as the positive control, steroid (dexamethasone acetate; Banyu Pharmaceutical) was subcutaneously administered to the eight rats described above in 150 μg/kg which was the clinical dose. As the negative control, PBS was subcutaneously administered to the 10 rats. Each administration was carried out immediately after the administration of carrageenin.
Each rat was anatomized six hours after the administration of λ-carrageenin. The thoracic cavity of the rats was opened to collect the retained pleural fluid using a 2-ml syringe with probe. After that, inside of the thoracic cavity was washed with 1 ml of saline, and the washing solution was recovered. The volume of the pleural fluid recovered with the syringe was determined, and the number of leukocyte (cell number) in the pleural fluid was determined by an automatic cytometer. The results are be shown in FIG. 8 and FIG. 9, respectively. In the figures, * and ** represent that they have the significant difference with p<0.05 and p<0.01, respectively (wherein "p" means a level of significance by the Duncan test).

The results in this text go back to patent US5939403A, “Keratan sulfate oligosaccharide fraction and pharmaceutical containing the same” (Seikagaku Corporation, priority 1994, dated 1999).

Where a name gives a salt, the structure may show the parent alone.

Regarding `CC(=O)N[C@H]1C(O)O[C@H](COS(=O)(=O)O)[C@@H](O[C@@H]2O[C@H](COS(=O)(=O)O)[C@H](O)[C@H](O)[C@H]2O)[C@@H]1O` (stereo partly drawn) [keratan sulfate disaccharide (III), Gal(6S)β1-4GlcNAc(6S)], in the assay with lymphocytes, the “proportion of CD3+B220+ cells (FIG. 21)” value is reported as “decreased”, the “proportion of CD3+CD4+ cells (FIG. 19)” value was “increased significantly” and the “proportion of CD3+CD8a+ cells (FIG. 20)” value was “increased”.
Regarding `CC(=O)N[C@H]1[C@H](O[C@H]2[C@@H](O)[C@@H](COS(=O)(=O)O)O[C@@H](O[C@H]3[C@H](O)[C@@H](NC(C)=O)C(O)O[C@@H]3COS(=O)(=O)O)[C@@H]2O)O[C@H](COS(=O)(=O)O)[C@@H](O[C@@H]2O[C@H](COS(=O)(=O)O)[C@H](O)[C@H](O)[C@H]2O)[C@@H]1O` (stereo partly drawn) [keratan sulfate tetrasaccharide (I), Gal(6S)β1-4GlcNAc(6S)β1-3Gal(6S)β1-4GlcNAc(6S)], in the assay with carrageenin pleurisy (10 mg/kg and 20 mg/kg s.c.), the “number of leukocyte in pleural fluid (FIG. 9)” value was “significantly less than that in the negative control group, and dose-dependent decrease was observed”. In the assay on carrageenin pleurisy (10 mg/kg s.c.), the “volume of pleural fluid (FIG. 8)” value is “significantly less than that in the negative control group”. The “volume of pleural fluid (FIG. 8), dose comparison” value in the assay on carrageenin pleurisy (10 mg/kg vs 20 mg/kg s.c.) is reported as “almost same as that in the keratan sulfate tetrasaccharide (I) 20 mg/kg administered group”.
